Drawing on patent US20220389007A1, “INHIBITORS OF HUMAN IMMUNODEFICIENCY VIRUS REPLICATION” (VIIV HEALTHCARE UK (No. 5) LIMITED, priority 2019, published 2022), this text covers EC50 and CC50 for eleven molecules.

Holding throughout (format): cell-based
For one series, the system named is recombinant NL4-3 virus. The experiment in a line: HIV cell culture assay (antiviral activity, luciferase readout). The method in brief: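 MT-2 cells infected for 4-5 days with NL4-3 reference virus carrying Renilla luciferase in place of part of nef, in presence of serial compound dilutions. Luciferase read with live-cell substrate; EC50 from median effect equation fit.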

The next series relates to uninfected MT2 cells. The experiment in a line: Compound cytotoxicity, XTT-based colorimetric assay. Particulars: day 4, XTT assay. The essentials: (§1)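 Run under the antiviral-assay protocol but without virus. Viability was read on day 4 and CC50 values were derived from the readout.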
Experiment in series [1]: as above
To be noted: human; uninfected MT2 cells, day 4, XTT assay. The essentials: as §1

The mark [2] stands for this setting: MT-2 cells infected for 4-5 days with recombinant NL4-3 virus carrying Renilla luciferase, read-out: EC50.
Setting [3] is: Human immunodeficiency virus 1, NL43, MT2, MT-2 cells infected for 4-5 days with recombinant NL4-3 virus carrying Renilla luciferase.

SMILES strings stand for the structures. Like-named read-outs stand apart in the source and are kept apart here.

In the case of `Cn1nc(NS(C)(=O)=O)c2c(Cl)ccc(-n3c([C@H](Cc4cc(F)cc(F)c4)NC(=O)Cn4nc(C(F)F)c5c4C(F)(F)[C@@H]4C[C@H]54)nc4nc(-c5cnc(C(C)(C)O)s5)ccc4c3=O)c21` [Example 92, N-((S)-1-((3P)-3-(4-chloro-1-methyl-3-(methylsulfonamido)-1H-indazol-7-yl)-7-(2-(2-hydroxypropan-2-yl)thiazol-5-yl)-4-oxo-3,4-dihydropyrido[2,3-d]pyrimidin-2-yl)-2-(3,5-difluorophenyl)ethyl)-2-((3bS,4aR)-3-(difluoromethyl)-5,5-difluoro-3b,4,4a,5-tetrahydro-1H-cyclopropa[3,4]cyclopenta[1,2-c]pyrazol-1-yl)acetamide], in the series on recombinant NL4-3 virus (setting [2]), the EC50 came out at 0.065 nM. The half-maximal cytotoxic concentration (CC50) with uninfected MT2 cells was over 100 nM.
As to `Cn1nc(NS(C)(=O)=O)c2c(Cl)ccc(-n3c([C@H](Cc4cc(F)cc(F)c4)NC(=O)Cn4nc(C(F)F)c5c4C(F)(F)[C@@H]4C[C@H]54)nc4nc(-c5csc(S(C)(=O)=O)n5)ccc4c3=O)c21` [Example 93, N-((S)-1-((3P)-3-(4-chloro-1-methyl-3-(methylsulfonamido)-1H-indazol-7-yl)-7-(2-(methylsulfonyl)thiazol-4-yl)-4-oxo-3,4-dihydropyrido[2,3-d]pyrimidin-2-yl)-2-(3,5-difluorophenyl)ethyl)-2-((3bS,4aR)-3-(difluoromethyl)-5,5-difluoro-3b,4,4a,5-tetrahydro-1H-cyclopropa[3,4]cyclopenta[1,2-c]pyrazol-1-yl)acetamide], in the series on recombinant NL4-3 virus (setting [2]), the EC50 worked out at 0.056 nM. The CC50 with uninfected MT2 cells is over 100 nM.
Regarding `Cn1nc(NS(C)(=O)=O)c2c(Cl)ccc(-n3c([C@H](Cc4cc(F)cc(F)c4)NC(=O)Cn4nc(C(F)F)c5c4C(F)(F)[C@@H]4C[C@H]54)nc4nc(-c5cc(C(F)(F)F)nn5CC(C)(F)F)ccc4c3=O)c21` [Example 95, N-((S)-1-((3P)-3-(4-chloro-1-methyl-3-(methylsulfonamido)-1H-indazol-7-yl)-7-(1-(2,2-difluoropropyl)-3-(trifluoromethyl)-1H-pyrazol-5-yl)-4-oxo-3,4-dihydropyrido[2,3-d]pyrimidin-2-yl)-2-(3,5-difluorophenyl)ethyl)-2-((3bS,4aR)-3-(difluoromethyl)-5,5-difluoro-3b,4,4a,5-tetrahydro-1H-cyclopropa[3,4]cyclopenta[1,2-c]pyrazol-1-yl)acetamide], the EC50 in the series on recombinant NL4-3 virus (setting [2]) was 0.25 nM. For the same molecule, the half-maximal cytotoxic concentration (CC50) in the series with uninfected MT2 cells is over 100 nM.
Take `Cc1cc(-c2ccc3c(=O)n(-c4ccc(Cl)c5c(NS(C)(=O)=O)nn(C)c45)c([C@H](Cc4cc(F)cc(F)c4)NC(=O)Cn4nc(C(F)F)c5c4C(F)(F)[C@@H]4C[C@H]54)nc3n2)ccn1` (atropisomer, axis not shown; (P)) [Example 48, N-((S)-1-((3P)-3-(4-chloro-1-methyl-3-(methylsulfonamido)-1H-indazol-7-yl)-7-(2-methylpyridin-4-yl)-4-oxo-3,4-dihydropyrido[2,3-d]pyrimidin-2-yl)-2-(3,5-difluorophenyl)ethyl)-2-((3bS,4aR)-3-(difluoromethyl)-5,5-difluoro-3b,4,4a,5-tetrahydro-1H-cyclopropa[3,4]cyclopenta[1,2-c]pyrazol-1-yl)acetamide]: the EC50 in the series on recombinant NL4-3 virus (setting [3]) was found to be 0.053 nM. Moreover, the 50% cytotoxic concentration (CC50) at 4 day in series [1] is over 100 nM.
Regarding `Cn1nc(NS(C)(=O)=O)c2c(Cl)ccc(-n3c([C@H](Cc4cc(F)cc(F)c4)NC(=O)Cn4nc(C(F)F)c5c4C(F)(F)[C@@H]4C[C@H]54)nc4nc(-c5ncc(Cl)nc5Cl)ccc4c3=O)c21` (atropisomer, axis not shown; (P)) [Example 57, N-((S)-1-((3P)-3-(4-chloro-1-methyl-3-(methylsulfonamido)-1H-indazol-7-yl)-7-(3,5-dichloropyrazin-2-yl)-4-oxo-3,4-dihydropyrido[2,3-d]pyrimidin-2-yl)-2-(3,5-difluorophenyl)ethyl)-2-((3bS,4aR)-3-(difluoromethyl)-5,5-difluoro-3b,4,4a,5-tetrahydro-1H-cyclopropa[3,4]cyclopenta[1,2-c]pyrazol-1-yl)acetamide], the 50% effective concentration (EC50) in the series on recombinant NL4-3 virus (setting [3]) was determined as 0.073 nM. In series [1], this molecule had a CC50 at 4 day of over 100 nM.
Regarding `Cn1nc(NS(C)(=O)=O)c2c(Cl)ccc(-n3c([C@H](Cc4cc(F)cc(F)c4)NC(=O)Cn4nc(C(F)F)c5c4C(F)(F)[C@@H]4C[C@H]54)nc4nc(-c5ccnc(C(F)(F)F)n5)ccc4c3=O)c21` (atropisomer, axis not shown; (P)) [Example 37, N-((S)-1-((3P)-3-(4-chloro-1-methyl-3-(methylsulfonamido)-1H-indazol-7-yl)-4-oxo-7-(2-(trifluoromethyl)pyrimidin-4-yl)-3,4-dihydropyrido[2,3-d]pyrimidin-2-yl)-2-(3,5-difluorophenyl)ethyl)-2-((3bS,4aR)-3-(difluoromethyl)-5,5-difluoro-3b,4,4a,5-tetrahydro-1H-cyclopropa[3,4]cyclopenta[1,2-c]pyrazol-1-yl)acetamide], in the series with recombinant NL4-3 virus (setting [3]), the 50% effective concentration (EC50) came to 0.11 nM. Besides, the cytotoxic concentration (CC50) at 4 day in series [1] was over 100 nM.
Turning to `Cn1nc(NS(C)(=O)=O)c2c(Cl)ccc(-n3c([C@H](Cc4cc(F)cc(F)c4)NC(=O)Cn4nc(C(F)F)c5c4C(F)(F)[C@@H]4C[C@H]54)nc4nc(-c5ncncc5C(F)(F)F)ccc4c3=O)c21` (atropisomer, axis not shown; (P)) [Example 17, N-((S)-1-((3P)-3-(4-chloro-1-methyl-3-(methylsulfonamido)-1H-indazol-7-yl)-4-oxo-7-(5-(trifluoromethyl)pyrimidin-4-yl)-3,4-dihydropyrido[2,3-d]pyrimidin-2-yl)-2-(3,5-difluorophenyl)ethyl)-2-((3bS,4aR)-3-(difluoromethyl)-5,5-difluoro-3b,4,4a,5-tetrahydro-1H-cyclopropa[3,4]cyclopenta[1,2-c]pyrazol-1-yl)acetamide], the EC50 in the series with recombinant NL4-3 virus (setting [3]) is 0.038 nM. Also, the cytotoxic concentration (CC50) at 4 day in series [1] was over 100 nM.
For the molecule `COc1cc(-c2ccc3c(=O)n(-c4ccc(Cl)c5c(NS(C)(=O)=O)nn(C)c45)c([C@H](Cc4cc(F)cc(F)c4)NC(=O)Cn4nc(C(F)F)c5c4C(F)(F)[C@@H]4C[C@H]54)nc3n2)ccn1` (atropisomer, axis not shown; (P)) [Example 59, N-((S)-1-((3P)-3-(4-chloro-1-methyl-3-(methylsulfonamido)-1H-indazol-7-yl)-7-(2-methoxypyridin-4-yl)-4-oxo-3,4-dihydropyrido[2,3-d]pyrimidin-2-yl)-2-(3,5-difluorophenyl)ethyl)-2-((3bS,4aR)-3-(difluoromethyl)-5,5-difluoro-3b,4,4a,5-tetrahydro-1H-cyclopropa[3,4]cyclopenta[1,2-c]pyrazol-1-yl)acetamide], the 50% effective concentration (EC50) in the series on recombinant NL4-3 virus (setting [3]) came to 0.05 nM. In series [1], this molecule gave a half-maximal cytotoxic concentration (CC50) at 4 day of over 100 nM.
Taken in the same sequence, the figures for `Cn1nc(NS(C)(=O)=O)c2c(Cl)ccc(-n3c([C@H](Cc4cc(F)cc(F)c4)NC(=O)Cn4nc(C(F)F)c5c4C(F)(F)[C@@H]4C[C@H]54)nc4nc(-c5ccn(CC(F)(F)C(F)F)n5)ccc4c3=O)c21` (atropisomer, axis not shown; (P)) [Example 84, N-((S)-1-((3P)-3-(4-chloro-1-methyl-3-(methylsulfonamido)-1H-indazol-7-yl)-4-oxo-7-(1-(2,2,3,3-tetrafluoropropyl)-1H-pyrazol-3-yl)-3,4-dihydropyrido[2,3-d]pyrimidin-2-yl)-2-(3,5-difluorophenyl)ethyl)-2-((3bS,4aR)-3-(difluoromethyl)-5,5-difluoro-3b,4,4a,5-tetrahydro-1H-cyclopropa[3,4]cyclopenta[1,2-c]pyrazol-1-yl)acetamide] were 0.041 nM and over 100 nM.
On to `Cn1nc(NS(C)(=O)=O)c2c(Cl)ccc(-n3c([C@H](Cc4cc(F)cc(F)c4)NC(=O)Cn4nc(C(F)F)c5c4C(F)(F)[C@@H]4C[C@H]54)nc4nc(-c5cc(C(F)(F)F)n(CC(C)(F)F)n5)ccc4c3=O)c21` (single isomer, unassigned) [Example 94], for which, in the series with recombinant NL4-3 virus (setting [3]), the EC50 amounted to 0.16 nM. In series [1], this molecule showed a CC50 at 4 day of over 100 nM.
For the molecule `COc1ccnc(-c2ccc3c(=O)n(-c4ccc(Cl)c5c(NS(C)(=O)=O)nn(C)c45)c([C@H](Cc4cc(F)cc(F)c4)NC(=O)Cn4nc(C(F)F)c5c4C(F)(F)[C@@H]4C[C@H]54)nc3n2)n1` (atropisomer, axis not shown; (P)) [Example 56, N-((S)-1-((3P)-3-(4-chloro-1-methyl-3-(methylsulfonamido)-1H-indazol-7-yl)-7-(4-methoxypyrimidin-2-yl)-4-oxo-3,4-dihydropyrido[2,3-d]pyrimidin-2-yl)-2-(3,5-difluorophenyl)ethyl)-2-((3bS,4aR)-3-(difluoromethyl)-5,5-difluoro-3b,4,4a,5-tetrahydro-1H-cyclopropa[3,4]cyclopenta[1,2-c]pyrazol-1-yl)acetamide], the EC50 in the series on recombinant NL4-3 virus (setting [3]) worked out at 0.051 nM. The molecule also registered a CC50 at 4 day in series [1] of over 100 nM.
